From patent US10794932B2, “Biosensor for the detection of a biological target, and method for manufacturing the same” (The Governing Council of The University of Toronto, priority 2016, dated 2020)

Target: T1, 'rmTLR1 and 2' mixture (Mus musculus, UniProt Q9EPQ1+Q9QUN7)
T1 construct: Fc (chimera); purchased R&D Systems RDS1476TR050 + RDS1530TR050
T1 sequence (Q9EPQ1 26-582 limits assumed): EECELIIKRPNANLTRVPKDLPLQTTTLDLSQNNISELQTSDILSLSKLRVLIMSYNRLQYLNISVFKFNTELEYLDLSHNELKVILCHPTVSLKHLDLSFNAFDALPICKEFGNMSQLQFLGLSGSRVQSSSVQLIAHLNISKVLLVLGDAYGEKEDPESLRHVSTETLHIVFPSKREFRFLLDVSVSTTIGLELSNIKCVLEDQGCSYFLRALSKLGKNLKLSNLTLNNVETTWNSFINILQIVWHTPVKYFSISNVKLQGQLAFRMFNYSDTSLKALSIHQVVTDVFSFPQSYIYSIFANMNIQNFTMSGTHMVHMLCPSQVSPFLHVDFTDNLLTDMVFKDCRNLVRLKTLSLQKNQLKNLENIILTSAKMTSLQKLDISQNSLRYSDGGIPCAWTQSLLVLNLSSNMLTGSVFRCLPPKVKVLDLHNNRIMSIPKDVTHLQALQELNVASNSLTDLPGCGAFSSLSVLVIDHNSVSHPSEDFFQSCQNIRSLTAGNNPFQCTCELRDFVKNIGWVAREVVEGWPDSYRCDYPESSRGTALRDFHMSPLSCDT
T1 sequence (Q9QUN7 25-587 limits assumed): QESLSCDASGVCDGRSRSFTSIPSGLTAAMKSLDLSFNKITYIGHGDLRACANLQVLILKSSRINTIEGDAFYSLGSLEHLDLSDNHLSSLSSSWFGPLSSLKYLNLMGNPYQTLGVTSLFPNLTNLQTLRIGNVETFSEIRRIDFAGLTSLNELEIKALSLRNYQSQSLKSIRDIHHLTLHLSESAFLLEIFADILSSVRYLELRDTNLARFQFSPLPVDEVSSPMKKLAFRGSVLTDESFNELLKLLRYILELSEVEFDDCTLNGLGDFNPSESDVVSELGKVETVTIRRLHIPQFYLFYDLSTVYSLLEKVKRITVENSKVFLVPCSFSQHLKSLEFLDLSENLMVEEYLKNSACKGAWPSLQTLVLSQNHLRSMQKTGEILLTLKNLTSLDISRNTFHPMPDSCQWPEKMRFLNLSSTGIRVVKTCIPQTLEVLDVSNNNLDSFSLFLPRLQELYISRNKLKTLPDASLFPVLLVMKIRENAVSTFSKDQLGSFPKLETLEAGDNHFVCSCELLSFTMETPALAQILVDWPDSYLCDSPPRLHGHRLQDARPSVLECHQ
Assay: Label-free hybridized 'TLR1 and 2' sensor, EIS detection of Pam3CSK4 (Example 7)
Format: binding
Settings: for delta Rct % / Rct: 'TLR1 and 2' sensor; for delta Rct %: 20 minutes; for Rct: before immersion 5472
Procedure: TLR sensors were prepared using fresh, cleaned gold electrodes. The electrodes were immersed in a 2 mM 1-lipoic acid n-hydroxysuccinimide ester (LPA) ethanol solution for 48 hours at 277 K. The electrodes were then rinsed thoroughly using absolute ethanol and blown dry under nitrogen before incubation in 200 μg/ml rmTLR1, 200 μg/ml rmTLR2 and 200 μg/ml ‘rmTLR1 and 2’ mixture for 72 hours at 277 K. The rmTLR1 and 2 mixture was prepared by mixing 200 μg/ml rmTLR1 and 200 μg/ml rmTLR2 with a volume ratio of 1:1. The final concentration of each component was 100 μg/ml and the total concentration of the combined TLR protein content was 200 μg/ml. Following the supplier's recommended conditions, all TLRs were prepared in PBS buffer (pH˜7.4). The electrodes were rinsed with an excess volume of Milli-Q water and blown dry under nitrogen. An ethanolamine-tris buffer solution was prepared by dissolving 1.2 g of ethanolamine and 0.121 g of Tris base in 20 mL of water, the pH was adjusted to 8.4 using hydrochloric acid. TLR-immobilized electrodes were incubated in the ethanolamine solution for one hour at room temperature in order to block any remaining unreacted LPA amine sites. The fabricated sensors with immobilized, standalone rmTLR3, rmTLR4/MD-2 and rmTLR5, used for the selectivity test, were prepared using the same protocol described above.
Pam3CSK4 was dissolved in 10 mM HEPES aqueous buffer at pH˜7.4. The blocked rmTLR biosensors were incubated in Pam3CSK4 at various concentrations for 20 minutes. The electrodes were always washed thoroughly with same HEPES buffer (pH˜7.4) after the incubation.
All electrochemical measurements were carried out using a cell with a three-electrode configuration in an enclosed Faraday cage. CV and EIS measurements were completed using a CHI-660b potentiostat (CH Instruments, Austin, Tex.). rmTLR-modified gold electrodes and platinum (Pt) wire were used as the working electrode and the counter electrode, respectively. A reference electrode (Ag/AgCl/3.0M KCl) and a salt bridge, filled with an agar and 1M KNO3 aqueous solution, were inserted to minimize the diffusion of chloride ions into the electrolyte solution. The agar solution was prepared by dissolving 2.0 grams of agar and 10.1 g KNOB in 100 mL of water. The CV and EIS electrolyte was made in a 10 mM HEPES aqueous buffer at pH˜7.4, which consisted of a 5 mM K4Fe(CN)6/5 mM K3Fe(CN)6 as a redox couple with 1M of NaClO4 as the supporting electrolyte. For consistency, the electrochemical measurements were carried out with open-circuit potentials. EIS experiments were conducted in the frequency range of 100,000 to 0.1 Hz with an amplitude of 5 mV. The experimental EIS curves were evaluated to determine the film resistance using ZSimpWin 2.0 software.

Pam3CSK4 was tested, and the “delta Rct %” value (5 μM) was 37±11%, the “delta Rct %” value (25 μM) was 125±19% and the “delta Rct %” value (50 μM) was 199±26%. For the same substance, the Rct (after 5 μM) was 5688 Ω · cm^2, the Rct (after 10 μM) was 7147 Ω · cm^2 and the Rct (after 25 μM) was 11260 Ω · cm^2. The Rct (after 50 μM) was 15620 Ω · cm^2 and the limit of detection (hybridized 'TLR1 and 2' sensor) was 5 µM.
